Test results taken from patent EP4781986A1, “PHARMACEUTICAL COMPOSITION HAVING IMPROVED PHARMACOKINETIC PROPERTIES” (Sichuan Purity Pharmaceutical Co., Ltd., priority 2023, dated 2025).

Legend:
[1] = PK properties in SD rats with different concentrations of alkyl glycoside (0.05% and 5% DDM); assay type: in vivo; settings: for Tmax: rat, in vivo; for Tmax(DDM 0.05%)/ Tmax(DDM 0%): 0.05% DDM vs without DDM; for Tmax(DDM 5%)/ Tmax(DDM 0%): 5% DDM vs without DDM
Text: During preparation of a test sample in the Test Example 7, drug solution groups with 0.05% and 5% dodecyl-β-D-maltosides (DDM) were established and prepared in parallel, so as to compare and observe changes of PK properties in rats administered with the drug solution groups with two different concentrations of dodecyl-β-D-maltosides (DDM).

Plasma of SD rat = experiment: plasma protein binding rate test, equilibrium dialysis (rat); assay type: in vitro ADME; settings: 1 µM, 37°C, 6 hours
Protocol: Protein binding rates of the compound of the present invention in plasma of rat, monkey and human were determined by an equilibrium dialysis method. Tested compounds of the present invention were the compounds in Examples 6 and 8.
3.1 A dry dialysis membrane was rinsed with ultrapure water for 2-3 times, and then soaked in a phosphate buffer for 1 hour for later use. Polytetrafluoroethylene module was soaked in 20% ethanol for 30 minutes, and then surface moisture was dried with dust-free paper for later use. The pretreated dialysis membrane was assembled into a dialysis plate according to the product specification, and one side (receptor compartment) of an osmotic membrane in each dialysis well was added with 100 µL of receptor fluid (100 mM phosphate buffer solution plus 0.002% Tween 80).
3.2 The plasma was put into a centrifuge tube, a working solution of a tested substance was added into the plasma, wherein a final concentration was 1 µM, and the mixture was turned upside down and mixed evenly (this step was carried out in ice bath). 20 µL of drug-containing plasma each was taken, and was respectively transferred to a 96-well sample plate according to two parts in parallel, and stored in a refrigerator at -20°C as a T0 sample.
3.3 Another 100 µL of the above drug-containing plasma was transferred to the other side (sample compartment) of the membrane in the dialysis device according to two parts in parallel, and incubated under vibration at a constant temperature of 37°C for 6 hours. […]
A plasma protein binding rate and a recovery rate of the compound in plasma were calculated by the following formulas: dissociation percentage (%) = CB /CA; [formula] plasma protein binding rate (fb%) = 1−dissociation percentage (%); [formula] recovery rate (%) = (CB+CA)/CT0 [formula] wherein CB was a concentration of the compound in the receptor fluid after equilibrium dialysis; CA was a concentration of the compound in the drug-containing plasma after equilibrium dialysis; and CT0 was an initial concentration of the compound in plasma.

[2] = stability test in liver microsomes (monkey); assay type: in vitro ADME; settings: Monkey liver microsomes
Protocol: The stability of the compound of the present invention in liver microsomes of rat, monkey and human was determined. Tested compounds of the present invention were the compounds in Examples 6 and 8 , and a control drug was Zavegepant.
3.2 An appropriate amount of liver microsome solution was transferred into a 1 mL 96-deep-well plate, added with a tested drug liquid (or a probe substrate solution), and pre-incubated in a thermal mixer at 37°C for 5 minutes. Two parts of mixed solutions were taken out from the system and added with 1×PBS to replace NADPH, and the mixed solutions were taken out at 0 and 60 minutes respectively, and added with methanol (containing an internal standard) to terminate the reaction. In the remaining mixed system, each well was added with NADPH to start the reaction. In the tested substance group, mixed solutions were taken out from the system at 0, 5, 15, 30, 45 and 60 minutes, and in the control group, mixed solutions were taken out from the system at 0, 30 and 60 minutes, and the mixed solutions were added methanol (containing an internal standard) to terminate the reaction. All samples of the terminated reaction were mixed evenly and centrifuged in a centrifuge at 3800 rpm for 15 minutes, and the supernatant was taken for LC-MS/MS analysis.
A peak area was determined by an extracted ion chromatogram. A slope value k was determined by linear regression of a remaining percentage of a parent drug relative to a natural logarithm of an incubation time curve. According to the slope, in-vitro half-life periods (t1/2) were respectively calculated, and in-vitro intrinsic clearance rates (CLint, represented by µL/min/mg protein) were calculated. Calculation formulas were as follows: t1/2 = ln2/k = 0.693/k; and CLint = 0.693/t1/2 /liver microsome protein concentration [formula]

[3] = intranasal, 0.05% alkyl glycoside vs without
[4] = intranasal, 5% alkyl glycoside vs without

Row | Tmax ([1]; Sprague-Dawley, inhaled or intranasal, 0.05% alkyl glycoside) [min] | Tmax ([1]; Sprague-Dawley, inhaled or intranasal, 5% alkyl glycoside) [min] | Tmax ([1]; Sprague-Dawley, inhaled or intranasal, without alkyl glycoside) [min] | SMILES | Tmax(DDM 0.05%)/ Tmax(DDM 0%) ([1]; intranasal) [%] | Tmax shortened by [1, 3] [%] | Tmax(DDM 5%)/ Tmax(DDM 0%) ([1]; intranasal) [%] | Tmax shortened by [1, 4] [%] | fb (%) (Plasma of SD rat) | % remaining (60 min) [2] [%] | Tmax ([1]; intranasal, 0.05% alkyl glycoside) [min] | Tmax ([1]; intranasal, 5% alkyl glycoside) [min] | Tmax ([1]; intranasal, without alkyl glycoside) [min] | CLint [2] [µL/min/mg]
1 | 10 | 4.98 | 12 | Cc1cc(C[C@@H](NC(=O)N2CCC(c3cc4c([nH]c3=O)SCC4)CC2)C(=O)N2CCN(C3CCN(C)CC3)CC2)cc2cn[nH]c12 [Example 8, (R)-N-(3-(7-methyl-1H-indazole-5-yl)-1-(4-(1-methylpiperidine-4-yl)piperazine-1-yl)-1-oxopropan-2-yl)-4-(6-oxo-2,3,6,7-tetrahydrothieno[2,3-b]pyridine-5-yl)piperidine-1-formamide] | 79.9 | 20 | 39.7 | 60 | 69.4 | 61.6 |  |  |  | 
2 |  |  |  | Cc1cc(C[C@@H](NC(=O)N2CCC(c3cc4c([nH]c3=O)SCCC4)CC2)C(=O)N2CCN(C3CCN(C)CC3)CC2)cc2cn[nH]c12 [Example 6, (R)-N-(3-(7-methyl-1H-indazole-5-yl)-1-(4-(1-methylpiperidine-4-yl)piperazine-1-yl)-1-oxopropan-2-yl)-4-(7-oxo-3,4,7,8-tetrahydro-2H-thiopyrano[2,3-b]pyridine-6-yl)piperidine-1-formamide] | 25.0 | 75 | 8.3 | 91.7 | 90.0 | 96.9 | 15 | 4.98 | 60 | 0.8
